Measured values reported in ChEMBL document CHEMBL5329192, “Synthesis, biological activities, and future perspectives of steroidal monocyclic pyridines” (RSC Med Chem, 2023).

Key:
[1] = test system: A549; experiment: Cytotoxicity against human A549 cells assessed as reduction in cell viability incubated for 72 hrs by MTT assay; type: functional, cell-based; settings: A549, 72 h
[2] = test system: PC-3; experiment: Cytotoxicity against human PC-3 cells assessed as reduction in cell viability incubated for 72 hrs by MTT assay; type: functional, cell-based; settings: PC-3, 72 h
[3] = test system: MCF7; experiment: Cytotoxicity against human MCF7 cells assessed as reduction in cell viability incubated for 72 hrs by MTT assay; type: functional, cell-based; settings: MCF7, 72 h
[4] = test system: ECa-109 cell line; experiment: Cytotoxicity against human Eca-109 cells assessed as reduction in cell viability incubated for 72 hrs by MTT assay; type: functional, cell-based; settings: ECa-109, 72 h
[5] = test system: MGC-803; experiment: Cytotoxicity against human MGC-803 cells assessed as reduction in cell viability incubated for 72 hrs by MTT assay; type: functional, cell-based; settings: MGC-803, 72 h
[6] = test system: HeLa; experiment: Antiproliferative activity against human HeLa cells assessed as reduction in cell growth incubated for 48 hrs by MTT assay; type: functional, cell-based
[7] = test system: SK-OV-3; experiment: Antiproliferative activity against human SK-OV-3 cells assessed as reduction in cell growth incubated for 48 hrs by MTT assay; type: functional, cell-based; settings: SK-OV-3, 48 h
[8] = test system: MCF7; experiment: Antiproliferative activity against human MCF7 cells assessed as reduction in cell growth incubated for 48 hrs by MTT assay; type: functional, cell-based; settings: MCF7, 48 h
[9] = test system: HepG2; experiment: Antiproliferative activity against human HepG2 cells assessed as reduction in cell growth incubated for 48 hrs by MTT assay; type: functional, cell-based; settings: HepG2, 48 h
[10] = Cytotoxicity against human HEp-2 cells assessed as reduction in cell viability incubated for 48 hrs by MTT assay; type: toxicity, cell-based
[11] = Acute toxicity in ip dosed albino rat administered twice daily for 14 days; type: organism-based; settings: in vivo, time 14 day
[12] = species: Rattus norvegicus; experiment: Ratio of anti-anabolic activity against albino rat assessed as reduction in mass of levator ani-muscle to anti-androgenic activity against albino rat assessed as mass gain of prostate gland; type: functional
[13] = test system: Rattus norvegicus; experiment: Anti-androgen activity against albino rat assessed as mass gain of prostate gland at 0.1 mg/kg, sc administered for 7 days; type: functional; settings: time 7 day

IC50 [6] [µM] | IC50 [7] [µM] | IC50 [8] [µM] | IC50 [9] [µM] | SMILES | IC50 [1] [µM] | IC50 [2] [µM] | IC50 [3] [µM] | IC50 [4] [µM] | IC50 [5] [µM] | other results
 |  |  |  | C[C@]12CC[C@H]3[C@@H](CC=C4C[C@@H](O)CC[C@@]43C)[C@@H]1CC[C@@H]2c1cc(-c2ccc(F)cc2F)c(C#N)c(N)n1 | > 64 | 3.5 | 30.3 | 58 | 22.7 | 
16.3 | 13.9 | 18.8 | 25.8 | C[C@]12CC[C@H]3[C@@H](CC=C4C[C@@H](O)CC[C@@]43C)[C@@H]1CC[C@@H]2c1cc(-c2ccco2)c(C#N)c(N)n1 |  |  |  |  |  | 
 |  |  |  | C[C@]12CC[C@H]3[C@@H](CC=C4C[C@@H](O)CC[C@@]43C)[C@@H]1CC[C@@H]2c1cc(-c2cccc(Cl)c2)c(C#N)c(N)n1 | 30.3 | 9.7 | 29 | > 64 | > 64 | 
 |  |  |  | CC(=O)O[C@H]1CC[C@@]2(C)C(=CC[C@H]3[C@@H]4CC[C@H](c5cc(-c6ccccc6)c(C#N)c(N)n5)[C@@]4(C)CC[C@@H]32)C1 |  |  |  |  |  | CC50 at 48 h [10]: 227 µM
 |  |  |  | C[C@]12CC[C@H]3[C@@H](CC=C4C[C@@H](O)CC[C@@]43C)[C@@H]1CC[C@@H]2c1cc(-c2ccc(F)c(Br)c2)c(C#N)c(N)n1 | 56.2 | 5.9 | 37.3 | > 64 | > 64 | 
38.9 | 33.9 | 105 | 41.4 | C[C@]12CC[C@H]3[C@@H](CC=C4C[C@@H](O)CC[C@@]43C)[C@@H]1CC[C@@H]2c1cc(-c2ccc(OCc3ccccc3)c(OCc3ccccc3)c2OCc2ccccc2)c(C#N)c(N)n1 |  |  |  |  |  | 
40.3 | 32.5 | 101 | 34.8 | COc1ccc(-c2cc([C@H]3CC[C@H]4[C@@H]5CC=C6C[C@@H](O)CC[C@]6(C)[C@H]5CC[C@]34C)nc(N)c2C#N)cc1 | > 64 | 5.7 | 51.1 | > 64 | 57.8 | 
22 | 21.8 | 41.1 | 21.5 | C[C@]12CC[C@H]3[C@@H](CC=C4C[C@@H](O)CC[C@@]43C)[C@@H]1CC[C@@H]2c1cc(-c2cccc(OCc3ccccc3)c2)c(C#N)c(N)n1 |  |  |  |  |  | 
 |  |  |  | CC(=O)O[C@H]1CC[C@@]2(C)C(=CC[C@H]3[C@@H]4CC[C@H](c5cc(-c6ccc(Cl)cc6)c(C#N)c(N)n5)[C@@]4(C)CC[C@@H]32)C1 |  |  |  |  |  | CC50 at 48 h [10]: 252 µM
 |  |  |  | COc1cccc(-c2cc([C@H]3CC[C@H]4[C@@H]5CC=C6C[C@@H](O)CC[C@]6(C)[C@H]5CC[C@]34C)nc(N)c2C#N)c1 | > 64 | 7.5 | 27.4 | > 64 | > 64 | 
 |  |  |  | C[C@]12CC[C@H]3[C@@H](CC=C4C[C@@H](O)CC[C@@]43C)[C@@H]1CC[C@@H]2c1cc(-c2ccc(Cl)cc2)c(C#N)c(N)n1 | 43.9 | 15.7 | 26.2 | 48.9 | 55 | 
 |  |  |  | C[C@]12CC[C@H]3[C@@H](CC=C4C[C@@H](O)CC[C@@]43C)[C@@H]1CC[C@@H]2c1cc(-c2ccnc(Br)c2)c(C#N)c(N)n1 | 43.6 | 7 | > 64 | 22.3 | 19.7 | 
 |  |  |  | CC(=O)O[C@H]1CC[C@@]2(C)C(=CC[C@H]3[C@@H]4CC[C@H](c5cc(-c6ccc(F)cc6F)c(C#N)c(N)n5)[C@@]4(C)CC[C@@H]32)C1 |  |  |  |  |  | CC50 at 48 h [10]: 174 µM
46.5 | 17.7 | 28.9 | 41.2 | C[C@]12CC[C@H]3[C@@H](CC=C4C[C@@H](O)CC[C@@]43C)[C@@H]1CC[C@@H]2c1cc(-c2cccc(Br)c2)c(C#N)c(N)n1 |  |  |  |  |  | 
 |  |  |  | COc1ccccc1-c1cc([C@H]2CC[C@H]3[C@@H]4CC=C5C[C@@H](O)CC[C@]5(C)[C@H]4CC[C@]23C)nc(N)c1C#N | 20.7 | 8 | 45.2 | 19.7 | 17 | 
15 | 17.3 | 17 | 50.2 | COc1ccc(-c2cc([C@H]3CC[C@H]4[C@@H]5CC=C6C[C@@H](O)CC[C@]6(C)[C@H]5CC[C@]34C)nc(N)c2C#N)cc1O |  |  |  |  |  | 
 |  |  |  | CC(=O)O[C@H]1CC[C@@]2(C)C(=CC[C@H]3[C@@H]4CC[C@H](c5cc(-c6c(F)cccc6F)c(C#N)c(N)n5)[C@@]4(C)CC[C@@H]32)C1 |  |  |  |  |  | CC50 at 48 h [10]: 374 µM
14.6 | 13.1 | 15.5 | 23.8 | C[C@]12CC[C@H]3[C@@H](CC=C4C[C@@H](O)CC[C@@]43C)[C@@H]1CC[C@@H]2c1cc(-c2ccccc2)c(C#N)c(N)n1 | 43.2 | 3.2 | 16 | > 64 | 10.9 | 

IC50 [6] [µM] | IC50 [7] [µM] | IC50 [8] [µM] | IC50 [9] [µM] | SMILES | IC50 [1] [µM] | IC50 [2] [µM] | IC50 [3] [µM] | IC50 [4] [µM] | IC50 [5] [µM] | other results
 |  |  |  | C[C@]12CC[C@H]3[C@@H](CC=C4C[C@@H](O)CC[C@@]43C)[C@@H]1CC[C@@H]2c1cc(-c2ccccc2F)c(C#N)c(N)n1 | 28.8 | 3.2 | 10.1 | 17.8 | 9.4 | 
73.3 | 18.9 | 47.8 | 103 | C[C@]12CC[C@H]3[C@@H](CC=C4C[C@@H](O)CC[C@@]43C)[C@@H]1CC[C@@H]2c1cc(-c2ccncc2)c(C#N)c(N)n1 |  |  |  |  |  | 
107 | 29.5 | 107 | 55.4 | COc1ccc(-c2cc([C@H]3CC[C@H]4[C@@H]5CC=C6C[C@@H](O)CC[C@]6(C)[C@H]5CC[C@]34C)nc(N)c2C#N)cc1OC |  |  |  |  |  | 
 |  |  |  | COc1ccccc1-c1cc([C@H]2CC[C@H]3[C@@H]4CC=C5C[C@@H](OC(C)=O)CC[C@]5(C)[C@H]4CC[C@]23C)nc(N)c1C#N |  |  |  |  |  | CC50 at 48 h [10]: 299 µM
 |  |  |  | C[C@]12CC[C@H](O)C[C@@H]1CC[C@@H]1[C@@H]2CC[C@]2(C)c3c(c(-c4ccccc4)[nH]c(=O)c3C#N)C[C@@H]12 |  |  |  |  |  | LD50 at 336 h [11]: 4920 mg/kg; Ratio [12]: 11.3; Activity [13]: 0.234 g
12.2 | 7.66 | 12 | 15.2 | C[C@]12CC[C@H]3[C@@H](CC=C4C[C@@H](O)CC[C@@]43C)[C@@H]1CC[C@@H]2c1cc(-c2ccc(Br)cc2)c(C#N)c(N)n1 |  |  |  |  |  | 
18.6 | 11.2 | 33.9 | 28.4 | C[C@]12CC[C@H]3[C@@H](CC=C4C[C@@H](O)CC[C@@]43C)[C@@H]1CC[C@@H]2c1cc(-c2ccccc2Br)c(C#N)c(N)n1 |  |  |  |  |  | 
 |  |  |  | C[C@]12CC[C@H]3[C@@H](CC=C4C[C@@H](O)CC[C@@]43C)[C@@H]1CC[C@@H]2c1cc(-c2c(F)cccc2F)c(C#N)c(N)n1 | 17.3 | 2 | 11.6 | > 64 | 8.8 | 
 |  |  |  | COc1ccc(-c2cc([C@H]3CC[C@H]4[C@@H]5CC=C6C[C@@H](OC(C)=O)CC[C@]6(C)[C@H]5CC[C@]34C)nc(N)c2C#N)cc1 |  |  |  |  |  | CC50 at 48 h [10]: > 400 µM
 |  |  |  | C[C@]12CC[C@H]3[C@@H](CC=C4C[C@@H](O)CC[C@@]43C)[C@@H]1CC[C@@H]2c1cc(-c2ccccc2Cl)c(C#N)c(N)n1 | 33.3 | 3.7 | 18.8 | 30.1 | 8.4 | 
 |  |  |  | COc1cccc(-c2cc([C@H]3CC[C@H]4[C@@H]5CC=C6C[C@@H](OC(C)=O)CC[C@]6(C)[C@H]5CC[C@]34C)nc(N)c2C#N)c1 |  |  |  |  |  | CC50 at 48 h [10]: 160 µM
 |  |  |  | CC(=O)O[C@H]1CC[C@@]2(C)C(=CC[C@H]3[C@@H]4CC[C@H](c5cc(-c6ccc(C#N)cc6)c(C#N)c(N)n5)[C@@]4(C)CC[C@@H]32)C1 |  |  |  |  |  | CC50 at 48 h [10]: 39.3 µM
63.2 | 26.1 | 19 | 15.9 | C[C@]12CC[C@H]3[C@@H](CC=C4C[C@@H](O)CC[C@@]43C)[C@@H]1CC[C@@H]2c1cc(-c2ccc(OCc3ccccc3)cc2)c(C#N)c(N)n1 |  |  |  |  |  | 
105 | 92.2 | 30.2 | 75.5 | C[C@]12CC[C@H]3[C@@H](CC=C4C[C@@H](O)CC[C@@]43C)[C@@H]1CC[C@@H]2c1cc(-c2cccnc2)c(C#N)c(N)n1 |  |  |  |  |  | 
26.7 | 28.3 | 31.2 | 26.7 | CCOc1ccc(-c2cc([C@H]3CC[C@H]4[C@@H]5CC=C6C[C@@H](O)CC[C@]6(C)[C@H]5CC[C@]34C)nc(N)c2C#N)cc1 |  |  |  |  |  | 
 |  |  |  | CC(=O)O[C@H]1CC[C@@]2(C)C(=CC[C@H]3[C@@H]4CC[C@H](c5cc(-c6cccc(Cl)c6)c(C#N)c(N)n5)[C@@]4(C)CC[C@@H]32)C1 |  |  |  |  |  | CC50 at 48 h [10]: 181 µM
7.36 | 7.02 | 6.28 | 13.8 | C[C@]12CC[C@H]3[C@@H](CC=C4C[C@@H](O)CC[C@@]43C)[C@@H]1CC[C@@H]2c1cc(-c2cccc(O)c2)c(C#N)c(N)n1 |  |  |  |  |  | 
